Measured values published in article PMC8304761, “Development of an Androgen Receptor Inhibitor Targeting the N-Terminal Domain of Androgen Receptor for Treatment of Castration Resistant Prostate Cancer” (Cancers, 2021).
pIC50: −log10 of the molar value. Read-outs that look alike come from different tables or passages of the source.

Key:
full-length AR = molecular target: T1, full-length AR (Homo sapiens, UniProt P10275, T878A); assay: AR fluorescent (eGFP) reporter assay in LN-ARR2PB-eGFP LNCaP cells; assay type: cell-based
T1 construct: against full length AR using an AR-eGFP transcription assay in LNCaP cells; endogenous in cells; host or cells: LNCaP (LN-ARR2PB-eGFP reporter line for A1; parental LNCaP for RIME)
T1 sequence (P10275 1-920 T878A): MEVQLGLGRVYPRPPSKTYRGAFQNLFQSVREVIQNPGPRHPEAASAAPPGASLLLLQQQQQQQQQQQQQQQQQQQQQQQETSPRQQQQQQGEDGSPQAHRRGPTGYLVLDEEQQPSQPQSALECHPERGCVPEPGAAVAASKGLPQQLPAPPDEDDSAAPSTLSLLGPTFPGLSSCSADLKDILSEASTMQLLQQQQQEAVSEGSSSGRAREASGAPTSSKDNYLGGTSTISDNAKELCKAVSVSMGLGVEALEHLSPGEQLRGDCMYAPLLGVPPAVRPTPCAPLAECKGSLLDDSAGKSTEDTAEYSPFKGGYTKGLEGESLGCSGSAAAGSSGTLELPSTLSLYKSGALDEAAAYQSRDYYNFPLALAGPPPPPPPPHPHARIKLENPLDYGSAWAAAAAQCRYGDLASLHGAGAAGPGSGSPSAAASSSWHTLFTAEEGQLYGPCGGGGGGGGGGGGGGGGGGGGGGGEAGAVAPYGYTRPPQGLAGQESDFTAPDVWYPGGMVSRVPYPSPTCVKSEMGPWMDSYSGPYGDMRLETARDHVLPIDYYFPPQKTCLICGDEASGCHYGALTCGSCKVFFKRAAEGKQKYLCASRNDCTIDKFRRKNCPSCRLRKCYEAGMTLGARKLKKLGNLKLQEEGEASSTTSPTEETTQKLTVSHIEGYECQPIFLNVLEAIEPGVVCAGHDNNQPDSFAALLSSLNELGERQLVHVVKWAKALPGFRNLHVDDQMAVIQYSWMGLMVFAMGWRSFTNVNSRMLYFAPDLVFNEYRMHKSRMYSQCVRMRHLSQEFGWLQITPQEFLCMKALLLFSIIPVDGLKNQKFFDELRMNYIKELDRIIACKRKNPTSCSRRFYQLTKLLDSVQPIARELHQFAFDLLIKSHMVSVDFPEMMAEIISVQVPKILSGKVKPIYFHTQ
Experimental: AR fluorescent reporter assay: Stably transfected eGFP-expressing LNCaP human prostate cancer cells (LN-ARR2PB-eGFP) containing an androgen-responsive probasin-derived promoter (ARR2PB) were assayed, as previously described.
Next, we tested the activity of VPC-220010 against full length AR using an AR-eGFP transcription assay in LNCaP cells. […] PSA is an AR-regulated serine protease and is widely used as a biomarker for PCa.

[1] = system: prostate specific antigen (PSA); assay: Secreted PSA levels in LNCaP cells; assay type: cell-based; settings: Homo sapiens, LNCaP; Table 1; read-out: PSA IC50
Excerpt: Next, we tested the activity of VPC-220010 against full length AR using an AR-eGFP transcription assay in LNCaP cells. […] To further validate VPC-220010 as an AR inhibitor, we evaluated its ability to reduce the production of endogenous prostate specific antigen (PSA) in PCa cell lines. PSA is an AR-regulated serine protease and is widely used as a biomarker for PCa.

Microsomal stability = assay type: in vitro ADME, human
Excerpt: However, further medicinal chemistry optimization is needed to make this scaffold stable enough to proceed to potential preclinical studies. […] Study of VPC-220057 scaffold could lead to a VPC-220010- and VPC-220057-derivative that combines their best potency and stability. The corresponding efforts are under way.

ARV7 = molecular target: T2, ARV7 (Homo sapiens, UniProt P10275)
T2 sequence (P10275 1-644 isoform P10275-3): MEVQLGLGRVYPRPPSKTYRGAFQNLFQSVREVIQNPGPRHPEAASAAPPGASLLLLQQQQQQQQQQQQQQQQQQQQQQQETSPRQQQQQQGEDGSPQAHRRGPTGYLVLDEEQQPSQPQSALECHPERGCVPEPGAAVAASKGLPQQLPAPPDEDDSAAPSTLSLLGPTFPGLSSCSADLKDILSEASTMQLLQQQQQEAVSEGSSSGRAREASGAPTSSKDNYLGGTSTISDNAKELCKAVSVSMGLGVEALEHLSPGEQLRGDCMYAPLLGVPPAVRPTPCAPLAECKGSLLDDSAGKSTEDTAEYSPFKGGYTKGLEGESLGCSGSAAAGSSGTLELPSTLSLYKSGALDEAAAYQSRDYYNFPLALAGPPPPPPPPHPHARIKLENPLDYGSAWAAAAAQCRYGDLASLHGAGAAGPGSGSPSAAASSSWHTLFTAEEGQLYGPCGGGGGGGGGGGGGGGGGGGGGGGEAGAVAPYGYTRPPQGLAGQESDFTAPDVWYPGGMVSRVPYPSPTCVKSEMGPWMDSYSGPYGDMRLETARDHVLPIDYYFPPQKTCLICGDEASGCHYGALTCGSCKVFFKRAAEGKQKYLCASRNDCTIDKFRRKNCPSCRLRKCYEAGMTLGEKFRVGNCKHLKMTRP
Excerpt: The newly synthesized compounds were screened initially for their ability to inhibit ARV7 transcriptional activity using a cell based ARV7 transcriptional assay.

22Rv1 cells = assay: Proliferation assay (PrestoBlue), 22Rv1; assay type: cell-based; settings: Homo sapiens, 72 h, Figure 2D, read-out: IC50, viability of 22Rv1 cells
Experimental: (§1) Proliferation assay: LNCaP, 22Rv1 and PC3 cells were plated at 3000 cells per well in RPMI1640 containing 5% CSS in a 96-well plate, treated with 0.1 nm R1881 (a synthetic androgen) and test compounds (0–25 μM) for 72 h. Cell proliferation was determined using the PrestoBlue^TM cell proliferation assay following incubation with the compound […] over 72 h. In brief, 30 μL of the PrestoBlue^TM reagent was added to cells in each well of the 96-well plate containing 200 μL of media and incubated for 60 min at 37 °C in 5% CO2. The production of […]. Fluorescence measurement was read on a TECAN F200.
(§2) We then evaluated the effect of VPC-220010 on the proliferation of androgen-dependent LNCaP and ARV7-dependent 22Rv1 cells.

LNCaP cells = assay: Proliferation assay (PrestoBlue), LNCaP; assay type: cell-based; settings: Homo sapiens, 72 h, R1881, Figure 2C, read-out: IC50, viability of LNCaP cells
Experimental: as §1, §2

[2] = molecular target: T3, glucocorticoid receptor (GR) (Homo sapiens, UniProt P04150); assay: Luciferase reporter transcription assay in PC3 cells, GR; settings: dexamethasone stimulated; 20 uM; Figure 4
T3 sequence (P04150 1-777): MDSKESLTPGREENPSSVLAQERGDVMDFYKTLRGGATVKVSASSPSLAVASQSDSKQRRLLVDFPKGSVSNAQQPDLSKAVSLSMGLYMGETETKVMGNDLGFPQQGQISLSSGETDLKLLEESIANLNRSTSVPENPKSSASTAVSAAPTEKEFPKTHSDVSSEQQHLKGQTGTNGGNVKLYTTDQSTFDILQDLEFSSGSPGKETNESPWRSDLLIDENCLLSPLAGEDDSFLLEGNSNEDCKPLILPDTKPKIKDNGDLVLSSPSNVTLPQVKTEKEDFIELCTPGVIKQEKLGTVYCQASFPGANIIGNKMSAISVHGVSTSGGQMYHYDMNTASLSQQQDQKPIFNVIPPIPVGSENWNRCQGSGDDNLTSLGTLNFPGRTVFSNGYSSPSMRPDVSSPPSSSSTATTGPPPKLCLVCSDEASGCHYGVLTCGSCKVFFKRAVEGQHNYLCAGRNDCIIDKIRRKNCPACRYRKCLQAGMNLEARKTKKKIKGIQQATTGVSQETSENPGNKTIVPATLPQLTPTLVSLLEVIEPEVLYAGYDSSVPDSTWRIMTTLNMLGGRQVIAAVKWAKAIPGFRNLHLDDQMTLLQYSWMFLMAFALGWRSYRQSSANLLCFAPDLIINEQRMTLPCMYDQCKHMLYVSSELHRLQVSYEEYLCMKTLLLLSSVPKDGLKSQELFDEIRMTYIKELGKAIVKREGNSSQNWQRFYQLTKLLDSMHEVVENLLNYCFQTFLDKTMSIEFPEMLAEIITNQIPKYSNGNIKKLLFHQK

[3] = molecular target: T4, progesterone receptor (PR) (Homo sapiens, UniProt P06401); assay: Luciferase reporter transcription assay in PC3 cells, PR; settings: progesterone stimulated; 20 uM; Figure 4
T4 sequence (P06401 1-933): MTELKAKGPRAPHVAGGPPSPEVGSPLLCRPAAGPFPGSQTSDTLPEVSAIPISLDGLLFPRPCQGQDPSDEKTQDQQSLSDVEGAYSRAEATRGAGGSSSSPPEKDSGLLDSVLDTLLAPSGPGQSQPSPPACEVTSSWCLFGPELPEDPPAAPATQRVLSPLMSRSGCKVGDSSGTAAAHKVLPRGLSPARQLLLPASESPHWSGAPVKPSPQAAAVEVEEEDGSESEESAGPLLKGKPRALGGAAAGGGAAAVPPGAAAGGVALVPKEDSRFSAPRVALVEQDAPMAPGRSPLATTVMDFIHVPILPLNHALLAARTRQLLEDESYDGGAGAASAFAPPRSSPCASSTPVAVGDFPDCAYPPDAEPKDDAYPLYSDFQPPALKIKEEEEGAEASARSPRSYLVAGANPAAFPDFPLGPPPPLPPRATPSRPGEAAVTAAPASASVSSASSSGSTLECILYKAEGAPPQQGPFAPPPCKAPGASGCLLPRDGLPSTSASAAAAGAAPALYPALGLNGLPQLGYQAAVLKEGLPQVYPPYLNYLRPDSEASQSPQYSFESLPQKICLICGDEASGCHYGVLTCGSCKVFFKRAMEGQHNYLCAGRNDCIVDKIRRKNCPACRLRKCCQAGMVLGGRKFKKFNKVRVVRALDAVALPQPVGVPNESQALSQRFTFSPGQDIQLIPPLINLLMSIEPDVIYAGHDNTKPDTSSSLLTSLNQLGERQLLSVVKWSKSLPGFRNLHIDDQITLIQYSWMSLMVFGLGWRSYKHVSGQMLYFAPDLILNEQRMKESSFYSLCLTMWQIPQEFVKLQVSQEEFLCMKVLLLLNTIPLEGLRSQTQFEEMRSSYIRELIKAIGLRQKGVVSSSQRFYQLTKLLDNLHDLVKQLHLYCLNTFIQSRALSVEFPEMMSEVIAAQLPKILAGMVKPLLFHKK

pIC50 (full-length AR; Table 1, read-out: eGFP IC50)	pIC50 [1]	half-life (Microsomal stability; human, microsomes)	pIC50 (ARV7)	activity against ARV7 (in words) (ARV7)	SMILES	further results
6.15	6.15	11 min	5.30	no difference in potency	O[C@@H](CCl)COc1cccc2c(OC[C@@H](O)CCl)cccc12 [RR-220010]	–
6.15	6.22	12 min	5.22	no difference in potency	O[C@H](CCl)COc1cccc2c(OC[C@H](O)CCl)cccc12 [SS-220010]	–
–	–	–	5.06	active against this truncated variant	OC(CCl)CNc1cccc2c(NCC(O)CCl)cccc12 (stereo not drawn) [VPC-2055]	pIC50 (22Rv1 cells): < 4.30; pIC50 (full-length AR; LNCaP cells, read-out: IC50, full length AR, AR-eGFP transcription assay): 6.00; pIC50 (LNCaP cells): 4.93
5.52	5.40	–	5.40	–	OC(CCl)COc1c(Br)ccc2c(OCC(O)CCl)c(Br)ccc12 (stereo not drawn) [VPC-220027]	–
6.40	6.40	–	5.52	–	OC(CCl)COc1ccc(Br)c2c(OCC(O)CCl)ccc(Br)c12 (stereo not drawn) [VPC-220028]	–
5.30	5.30	–	5.52	–	O=[N+]([O-])c1ccc2c(OCC(O)CCl)cccc2c1OCC(O)CCl (stereo not drawn) [VPC-220054]	–
6.30	6.30	36 min	5.52	–	OC(CCl)COc1ccc(Br)c2c(OCC(O)CCl)cccc12 (stereo not drawn) [VPC-220062]	–
6.30	6.30	18 min	4.92	–	OC(CCl)COc1ccc2cc(OCC(O)CCl)ccc2c1 (stereo not drawn) [VPC-220075]	–
–	–	–	–	–	CC#C[C@]1(O)CC[C@H]2[C@@H]3CCC4=CC(=O)CCC4=C3[C@@H](c3ccc(N(C)C)cc3)C[C@@]21C [mifepristone]	GR transcriptional reporter activity [2]: inhibited; PR transcriptional reporter activity [3]: inhibited

SMILES	pIC50 (full-length AR; Table 1, read-out: eGFP IC50)	pIC50 [1]	half-life (Microsomal stability; human, microsomes)	pIC50 (ARV7)	activity against ARV7 (in words) (ARV7)	further results
O=[N+]([O-])c1ccc(OCC(O)CCl)c2c([N+](=O)[O-])ccc(OCC(O)CCl)c12 (stereo not drawn) [VPC-220057]	5.00	5.10	–	5.10	–	fold less potent than VPC-220010 (full-length AR; Table 1): 10 fold; half-life (Microsomal stability; microsomal stability, human microsomes, read-out: T1/2): 462 min
